BindingDB's records for patent US10913744 (Dana-Farber Cancer Institute, 2021)

What was measured:
[1] = target: T1, Leucine-rich repeat serine/threonine-protein kinase 2 [1326-2527,G2019S] (Homo sapiens, UniProt Q5S007, G2019S); experiment: Enzyme Assay
T1 construct: 1326-2527
Description: (§1) Samples were washed extensively and the incorporation of [γ-32P]ATP into Nictide was quantified by Cerenkov counting. IC50 values were calculated with GraphPad Prism using non-linear regression analysis.

[2] = target: T2, Leucine-rich repeat serine/threonine-protein kinase 2 [1326-2527] (Homo sapiens, UniProt Q5S007); experiment: Enzyme Assay
T2 construct: 1326-2527
T2 sequence (Q5S007 whole entry): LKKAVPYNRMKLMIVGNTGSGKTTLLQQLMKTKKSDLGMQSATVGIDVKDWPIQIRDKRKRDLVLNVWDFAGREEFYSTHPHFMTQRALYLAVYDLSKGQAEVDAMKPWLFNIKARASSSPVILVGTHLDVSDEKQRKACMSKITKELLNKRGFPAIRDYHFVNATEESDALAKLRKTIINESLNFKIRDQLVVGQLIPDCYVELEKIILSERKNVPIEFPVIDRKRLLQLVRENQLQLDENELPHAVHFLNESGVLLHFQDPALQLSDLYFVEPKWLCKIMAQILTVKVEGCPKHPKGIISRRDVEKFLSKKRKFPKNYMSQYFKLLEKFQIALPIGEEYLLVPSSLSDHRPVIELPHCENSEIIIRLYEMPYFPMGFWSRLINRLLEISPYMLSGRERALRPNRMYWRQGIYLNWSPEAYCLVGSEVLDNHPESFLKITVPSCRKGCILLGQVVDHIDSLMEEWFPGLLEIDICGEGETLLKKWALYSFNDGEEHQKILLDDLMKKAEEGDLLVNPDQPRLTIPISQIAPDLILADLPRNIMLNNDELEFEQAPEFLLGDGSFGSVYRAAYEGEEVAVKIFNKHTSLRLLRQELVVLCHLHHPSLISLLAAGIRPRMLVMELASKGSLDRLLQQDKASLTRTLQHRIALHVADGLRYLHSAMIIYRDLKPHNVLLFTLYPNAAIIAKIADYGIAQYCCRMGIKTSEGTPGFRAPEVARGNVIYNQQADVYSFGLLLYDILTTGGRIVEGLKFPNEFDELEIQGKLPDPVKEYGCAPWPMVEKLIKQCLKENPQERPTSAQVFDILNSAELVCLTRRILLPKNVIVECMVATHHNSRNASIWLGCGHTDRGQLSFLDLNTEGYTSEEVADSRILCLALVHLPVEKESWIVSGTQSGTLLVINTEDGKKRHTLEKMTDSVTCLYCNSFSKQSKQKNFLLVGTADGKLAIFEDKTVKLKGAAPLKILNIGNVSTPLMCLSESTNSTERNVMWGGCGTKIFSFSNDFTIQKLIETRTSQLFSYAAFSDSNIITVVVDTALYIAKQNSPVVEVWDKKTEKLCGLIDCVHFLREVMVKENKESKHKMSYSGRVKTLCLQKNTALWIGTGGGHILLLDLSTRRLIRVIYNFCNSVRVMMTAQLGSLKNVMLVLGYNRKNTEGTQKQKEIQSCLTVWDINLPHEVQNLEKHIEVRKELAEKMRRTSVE
Description: as §1

T1 sequence (Q5S007 1326-2527 G2019S): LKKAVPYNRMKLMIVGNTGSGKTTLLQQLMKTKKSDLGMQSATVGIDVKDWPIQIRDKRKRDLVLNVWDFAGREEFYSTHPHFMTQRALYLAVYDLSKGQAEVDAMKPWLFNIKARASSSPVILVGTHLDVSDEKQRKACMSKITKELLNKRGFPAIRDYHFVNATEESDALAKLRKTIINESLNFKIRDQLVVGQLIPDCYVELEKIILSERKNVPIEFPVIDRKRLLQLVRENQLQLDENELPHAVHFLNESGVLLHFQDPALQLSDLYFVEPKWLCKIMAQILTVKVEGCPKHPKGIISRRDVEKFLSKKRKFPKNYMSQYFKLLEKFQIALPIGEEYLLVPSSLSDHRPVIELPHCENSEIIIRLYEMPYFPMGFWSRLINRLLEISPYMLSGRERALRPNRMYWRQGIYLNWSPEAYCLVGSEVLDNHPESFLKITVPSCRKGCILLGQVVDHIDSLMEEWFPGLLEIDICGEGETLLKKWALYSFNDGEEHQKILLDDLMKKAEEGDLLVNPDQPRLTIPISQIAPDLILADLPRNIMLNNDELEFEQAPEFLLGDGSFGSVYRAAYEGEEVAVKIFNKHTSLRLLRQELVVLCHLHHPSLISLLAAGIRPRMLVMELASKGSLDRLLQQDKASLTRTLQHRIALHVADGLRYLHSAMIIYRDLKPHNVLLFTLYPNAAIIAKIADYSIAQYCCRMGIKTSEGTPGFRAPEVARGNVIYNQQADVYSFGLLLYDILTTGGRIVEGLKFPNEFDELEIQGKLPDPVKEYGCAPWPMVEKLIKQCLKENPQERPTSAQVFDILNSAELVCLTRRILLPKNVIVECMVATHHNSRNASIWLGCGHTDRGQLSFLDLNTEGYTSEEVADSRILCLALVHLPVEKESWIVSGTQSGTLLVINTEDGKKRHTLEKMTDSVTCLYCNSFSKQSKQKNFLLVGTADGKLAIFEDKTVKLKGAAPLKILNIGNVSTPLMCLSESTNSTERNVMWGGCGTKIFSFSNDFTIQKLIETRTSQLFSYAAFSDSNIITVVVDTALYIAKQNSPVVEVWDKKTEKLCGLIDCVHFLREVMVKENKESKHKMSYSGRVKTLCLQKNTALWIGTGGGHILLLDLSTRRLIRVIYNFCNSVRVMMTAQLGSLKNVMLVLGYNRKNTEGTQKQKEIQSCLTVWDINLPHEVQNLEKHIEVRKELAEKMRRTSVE

## CNc1nc(Nc2ccc(C(=O)N3CCOCC3)cc2OC)nc2[nH]ccc12 [US10913744, Compound 8]
[1]
  IC50: 5.1 nM
[2]
  IC50: 2.6 nM
